Assay: xn = mol fraction of the nth substance listed

Cc1ccccc1O + CCCC(=O)O
viscosity [mPa·s], 101 kPa
Conditions	x2 = 0.1104	x2 = 0.2183	x2 = 0.3237	x2 = 0.4268	x2 = 0.5276	x2 = 0.6262	x2 = 0.7227	x2 = 0.8171	x2 = 0.9095
298.15 K	6.565	5.731	4.976	4.317	3.725	3.167	2.698	2.265	1.862
308.15 K	4.973	4.431	3.973	3.534	3.113	2.687	2.294	1.936	1.575
318.15 K	3.375	3.191	2.968	2.723	2.463	2.194	1.914	1.62	1.307

C=CC(=O)OC + CCCCC(C)O
viscosity [mPa·s], 101 kPa
Conditions	298.15 K	308.15 K
x1 = 0.05507	3.631	2.614
x1 = 0.1	3.287	2.387
x1 = 0.1554	2.908	2.136
x1 = 0.1998	2.636	1.953
x1 = 0.2554	2.331	1.746
x1 = 0.2999	2.112	1.596
x1 = 0.3554	1.868	1.428
x1 = 0.3999	1.693	1.305
x1 = 0.4555	1.497	1.167
x1 = 0.4999	1.357	1.067
x1 = 0.5554	1.2	0.954
x1 = 0.5999	1.088	0.872
x1 = 0.6551	0.963	0.781
x1 = 0.7	0.872	0.713
x1 = 0.755	0.772	0.638
x1 = 0.7998	0.699	0.583
x1 = 0.8555	0.618	0.522
x1 = 0.8999	0.56	0.477
x1 = 0.9555	0.495	0.426

C=CC(=O)OCCCC + CCCCC(C)O
viscosity [mPa·s], 101 kPa
Conditions	298.15 K	308.15 K
x1 = 0.05546	3.742	2.694
x1 = 0.0999	3.477	2.526
x1 = 0.1555	3.172	2.33
x1 = 0.1999	2.948	2.185
x1 = 0.2554	2.69	2.015
x1 = 0.3	2.499	1.889
x1 = 0.3555	2.28	1.743
x1 = 0.4	2.119	1.634
x1 = 0.4553	1.934	1.508
x1 = 0.5	1.796	1.413
x1 = 0.5556	1.639	1.304
x1 = 0.5998	1.523	1.222
x1 = 0.6554	1.39	1.128
x1 = 0.6998	1.291	1.057
x1 = 0.7554	1.178	0.957
x1 = 0.8	1.095	0.914
x1 = 0.8554	0.999	0.844
x1 = 0.9	0.928	0.791
x1 = 0.9555	0.847	0.729

CC1=CCC2CC1C2(C)C (centres undefined) + CCCCCC
298.15 K, 101.33 kPa
Conditions	viscosity [mPa·s]
x2 = 0.0422	1.207
x2 = 0.06195	1.165
x2 = 0.1087	1.077
x2 = 0.254	0.842
x2 = 0.3759	0.699
x2 = 0.5049	0.577
x2 = 0.6267	0.487
x2 = 0.7168	0.43
x2 = 0.867	0.355
x2 = 0.9244	0.326
x2 = 0.9625	0.31

Reference: the CheMixHub viscosity set
